Measurements published in patent US8420592B2, “Methods of treatment using single doses of oritavancin” (The Medicines Company, priority 2008, dated 2013).
Converted amounts (≈) assume the structure as drawn.

What was measured:
[1] = Phase 2 cSSSI study: safety and tolerability; type: in vivo, human
Experimental: A phase 2, multi-center, randomized, double-blind, parallel, active-comparator study in which three dose regimens of oritavancin were explored as a treatment for cSSSI due to gram-positive pathogens was conducted using: a daily dose (200 mg) administered for three to seven days, a single dose (1200 mg), and an infrequent dose (800 mg dose with option for an additional 400 mg on Day 5).
Patients were randomized through an interactive voice response system in a 1:1:1 ratio to receive either 1) oritavancin […] daily dose: 200 mg IV daily for 3 to 7 days as determined by the investigator based on clinical criteria, 2) oritavancin single dose: 1200 mg oritavancin IV on Day 1, or; 3) oritavancin infrequent dose: 800 mg IV on Day 1 with optional 400 mg IV on Day 5 as determined by investigator based on clinical criteria. During randomization patients were stratified by disease categories of wound infection, major abscess, and cellulitis. Placebo IV (5% dextrose in water) was given to maintain the blind.
Analyses were performed on four patient populations: intent-to-treat (ITT), modified intent-to-treat (MITT), clinically evaluable (CE) and microbiologically evaluable (ME). The ITT population included patients who were randomized to treatment and received any amount of study medication. Two patients who were potentially unblinded were excluded from the ITT population for all efficacy analyses. The MITT population included all ITT patients with a gram-positive pathogen isolated at baseline.

[2] = tested on: MSSA; assay: MIC by broth microdilution with 0.002% polysorbate-80, baseline isolates of MITT population; type: cell-based; conditions: Staphylococcus aureus; MSSA subset
Experimental: (§1) Blood and infection site cultures were obtained within three days of enrollment (often done at the time of enrollment). End-of-therapy, TOC, and late follow-up (or at early relapse) cultures were obtained from the infection site if clinically indicated. […] Specimens were cultured and pathogens were identified at each investigative site's certified laboratory. All isolated gram-positive pathogen(s) that were obtained from the infection site at baseline/randomization and up to and including the TOC time point were subcultured and sent to a central laboratory (Covance Clinical Laboratories, Indianapolis, Ind.) for confirmatory identification and susceptibility testing. In cases of discrepancy between the local and the central laboratory, central laboratory results were used.
(§2) At least one gram-positive organism was isolated from the infection site at baseline in 209 patients (69.2%) in the ITT population. The most commonly isolated pathogen was S. aureus, which was isolated from 87.6% (183/209) of MITT patients. MRSA was isolated in 49% (103/209) of MITT patients. The other three most common pathogens identified in the MITT population were Streptococcus pyogenes (5.7%, 12/209), Streptococcus agalactiae (3.8%, 8/209) and Enterococcus faecalis (3.8%, 8/209). The range of oritavancin minimum inhibitory concentrations (MICs) for S. aureus in the MITT population, as assessed using broth microdilution with 0.002% polysorbate-80, was 0.008 to 0.5 μg/mL.

[3] = tested on: MRSA; assay: as above; type: cell-based; conditions: Staphylococcus aureus; MRSA subset
Experimental: as §1, §2

[4] = tested on: S. aureus; assay: as above; type: cell-based; conditions: Staphylococcus aureus; all S. aureus
Experimental: as §1, §2

[5] = tested on: Staphylococcus aureus; assay: Phase 2 cSSSI study: cure rate by baseline pathogen; type: in vivo; conditions: S. aureus at baseline, TOC
Experimental: (§3) The primary efficacy endpoint was the clinical response in the CE population at TOC, which occurred 20 to 28 days after study enrollment on Day 1. Clinical response was determined by the investigator as part of the end-of-therapy, TOC, and late follow-up procedures by assessing signs and symptoms including fever, pain, tenderness, erythema, induration, edema, purulent drainage, eschar, and devitalized tissue. A clinical response of cure, improvement, failure, or indeterminate was assigned at end-of-therapy and TOC by the investigator based on clinical signs and symptoms. At late follow-up, the investigator could assign the clinical response of relapse in addition to cure, improvement, or indeterminate. Only patients with a clinical response of cure or improvement at TOC were assessed for clinical response at late follow-up.
(§4) Cure was defined as resolution of purulent drainage, pain, edema, fever, erythema, tenderness, and induration. Serous drainage or aspirate and/or granulation tissue could be present. Improvement was defined as resolution of purulent drainage and, in the case of cellulitis, cessation of fever and pain. Residual erythema, edema, pain (in the case of wound or abscess), tenderness, and/or induration could be present as could serous drainage, granulation tissue, eschar, and/or devitalized tissue. Failure included any of the following: presence of purulent drainage (or aspirate) and/or fever; the unanticipated need for abscess drainage or removal of sutures (for treatment of infection)>48 hours after initiation of study therapy; or treatment with nonstudy systemic antibiotic having activity against gram-positive pathogen(s) for the primary infection site or use of topical antibiotics at the site of primary infection 24 hours or more after initiation of study medication therapy.
as §1

[6] = tested on: Streptococcus pyogenes; assay: as above; type: in vivo; conditions: Streptococcus pyogenes at baseline
Experimental: as §3, §4, §1

[7] = tested on: Streptococcus agalactiae; assay: as above; type: in vivo; conditions: Streptococcus agalactiae at baseline
Experimental: as §3, §4, §1

[8] = tested on: Enterococcus faecalis; assay: as above; type: in vivo; conditions: Enterococcus faecalis at baseline
Experimental: as §3, §4, §1

CN[C@H](CC(C)C)C(=O)N[C@H]1C(=O)N[C@@H](CC(N)=O)C(=O)N[C@H]2C(=O)N[C@H]3C(=O)N[C@H](C(=O)N[C@H](C(=O)O)c4cc(O)cc(O)c4-c4cc3ccc4O)[C@H](O[C@H]3C[C@](C)(N)[C@@H](O)[C@H](C)O3)c3ccc(c(Cl)c3)Oc3cc2cc(c3O[C@@H]2O[C@H](CO)[C@@H](O)[C@H](O)[C@H]2O[C@H]2C[C@](C)(NCc3ccc(-c4ccc(Cl)cc4)cc3)[C@@H](O)[C@H](C)O2)Oc2ccc(cc2Cl)[C@H]1O [Oritavancin, N-(4-(4-chlorophenyl)benzyl)A82846B]
Patients with a serious adverse event ([1]; all groups (25 patients)): 8.3%
Early discontinuation of study medication for lack of efficacy ([1]; all three treatment groups together (10/302)): 3.3%
Adverse events being mild ([1]; daily dose group): 51.8%
Adverse events considered mild or moderate in intensity ([1]; daily dose group): 85.7%
Incidence of serious adverse events ([1]; daily dose group): 11%
Patients who discontinued study medication due to an adverse event ([1]; daily dose group): 3.0%
Patients with phlebitis assessed as related to study medication ([1]; daily dose group): 3.0%
Patients who died during the study (n/total) ([1]; daily dose group, none related to study medication): 3/100
Adverse events being mild ([1]; infrequent dose group): 60.3%
Adverse events considered mild or moderate in intensity ([1]; infrequent dose group): 95.2%
Incidence of serious adverse events ([1]; infrequent dose group): 6.8%
Patients who discontinued study medication due to an adverse event ([1]; infrequent dose group): 1.0%
Patients with phlebitis assessed as related to study medication ([1]; infrequent dose group): 8.7%
Patients with related phlebitis ([1]; infrequent dose group, 800 mg only): 11.8%
Patients with related phlebitis ([1]; infrequent dose group, 800 mg plus the 400 mg dose): 7.2%
Patients who died during the study (n/total) ([1]; infrequent dose group, none related to study medication): 2/103
Adverse events being mild ([1]; single dose group): 58.2%
Adverse events considered mild or moderate in intensity ([1]; single dose group): 94.5%
Incidence of serious adverse events ([1]; single dose group): 7.1%
Patients who died during the study (n/total) ([1]; single dose group): 0/99
Patients who discontinued study medication due to an adverse event ([1]; single dose group): 3.0%
Patients with phlebitis assessed as related to study medication ([1]; single dose group): 4.0%
Serious adverse event investigator-assessed as related to study medication ([1]; single dose group (dyspnoea; hypersensitivity)): Two
Blood creatine phosphokinase (CPK) increase ([1]; single dose group compared to the daily and infrequent dose groups): higher incidence
MIC90 [2]: 0.12 µg/mL (≈ 0.0669 µM)
MIC90 [3]: 0.12 µg/mL (≈ 0.0669 µM)
MIC90 [4]: 0.12 µg/mL (≈ 0.0669 µM)
% of patients cured (cure and improvement) ([5]; 200 mg daily dose): 67.4%
% of patients cured (cure and improvement) ([5]; 800 mg infrequent dose): 79.5%
% of patients cured (cure and improvement) ([5]; 1200 mg single dose): 78.9%
% of patients cured (cure and improvement) ([6]; 200 mg daily dose): 66.7%
% of patients cured (cure and improvement) ([6]; 800 mg infrequent dose): 100%
% of patients cured (cure and improvement) ([6]; 1200 mg single dose): 100%
% of patients cured (cure and improvement) ([7]; 200 mg daily dose): 33.3%
% of patients cured (cure and improvement) ([7]; 800 mg infrequent dose): 100%
% of patients cured (cure and improvement) ([7]; 1200 mg single dose): 100%
% of patients cured (cure and improvement) ([8]; 200 mg daily dose): 50.0%
% of patients cured (cure and improvement) ([8]; 800 mg infrequent dose): 100%
% of patients cured (cure and improvement) ([8]; 1200 mg single dose): 100%
